US10329304B2, “Compounds and methods for inhibition of hedgehog signaling and phosphodiesterase” (Vanderbilt University, priority 2014, dated 2019)
Entries after “also recorded” stand apart in the source; their conditions may differ. Where two headings read alike, the source gives them in different places.

Experiments:
PC3 = test: Cell viability assay (CellTiter-Blue, 72 hr); type: cell-based; settings: for EC50: PC-3, human cancer cells, read-out: CELL KILLING EC50 (μM) Prostate PCx3
Protocol: (§1) Cancer cell lines were seeded in 96 well tissue culture plate at a low density (10,000 cells per well) and treated with varying concentrations of Eggmanone. After 72 hr incubation, CellTiter-Blue Cell Viability Assay (Promega, Madison, Wis.) was then performed according to manufacturer's protocol. Absorbance was then measured in a Modulus Microplate reader (Promega, Madison, Wis.) at 590 nm and compared to cells treated with DMSO.

[1] = test system: Hedgehog signaling (TM3-Gli-Luc); test: TM3-Gli-Luc luciferase reporter assay stimulated with 20 nM SAG; type: cell-based
How it was run: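 Luciferase read-out divided by CellTiter-Glo viability, minus DMSO/no-SAG baseline, expressed relative to 20 nM SAG alone. Cells exposed to compound with SAG for 48 h at 37 °C in 2.5% FBS DMEM/F12 on gelatin. EC50 ±SEM from at least two separate-day runs.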

MDA-MB- 231 = test: Cell viability assay (CellTiter-Blue, 72 hr); type: cell-based, Human
Protocol: as §1
as §1, with “density” for “density (10,000 cells per well)”, “compounds identified in Table 7.” for “Eggmanone.”

RWGT2 = test: Cell viability assay (CellTiter-Blue, 72 hr); type: cell-based, Human
Protocol: as §1
as §1, with “density” for “density (10,000 cells per well)”, “compounds identified in Table 7.” for “Eggmanone.”

DaoY = test: Cell viability assay (CellTiter-Blue, 72 hr); type: cell-based, Human
Protocol: as §1
as §1, with “density” for “density (10,000 cells per well)”, “compounds identified in Table 7.” for “Eggmanone.”

HCT116 = test: Cell viability assay (CellTiter-Blue, 72 hr); type: cell-based, Human
Protocol: as §1
as §1, with “density” for “density (10,000 cells per well)”, “compounds identified in Table 7.” for “Eggmanone.”

RKO = test: Cell viability assay (CellTiter-Blue, 72 hr); type: cell-based, Human; settings: for EC50: RKO, human cancer cells, read-out: CELL KILLING EC50 (μM) Colon RKO
Protocol: as §1
as §1, with “density” for “density (10,000 cells per well)”, “compounds identified in Table 7.” for “Eggmanone.”

Gli1 mRNA = test: Hh % Inh.: SAG-induced Gli1 expression in C3H10T½ cells (qPCR); type: cell-based; settings: Mus musculus, C3H 10T1/2, SAG-induced (100 nM), 24 hours; for inhibition at 1 µM: 1 pM [sic], read-out: C3H10T1/2 qPCR, Gh1 mRNA % Inh., 1 pM; for inhibition at 10 µM: 10 pM [sic], read-out: C3H10T1/2 qPCR, Gh1 mRNA % Inh., 10 pM; for EC50: read-out: C3H10T1/2 qPCR, Gh1 mRNA EC50
Protocol: Compounds are dosed from 10 mM DMSO stock solutions, and mRNA is isolated after 24 hours of compound treatment. mRNA is reverse transcribed to produce cDNA which is quantified by quantitative polymerase chain reaction (qPCR) in triplicate and levels are normalized to GAPDH levels. Data is presented as percent inhibition compared to positive control (SAG).

B16F11 = test: Cell viability assay (CellTiter-Blue, 72 hr); type: cell-based, Mouse
Protocol: as §1
as §1, with “density” for “density (10,000 cells per well)”, “compounds identified in Table 7.” for “Eggmanone.”

[2] = Table 9A, read-out: TM3 G8 Luciferase EC 50
[3] = MDA-MB-231, human cancer cells, read-out: CELL KILLING EC50 (μM) Breast MDA-231
[4] = human cancer cells, read-out: CELL KILLING EC50 (μM) Lung Squam, NSCLC RWGT2
[5] = Daoy, human cancer cells, read-out: CELL KILLING EC50 (μM) Medulloblastoma DaoY
[6] = HCT-116, human cancer cells, read-out: CELL KILLING EC50 (μM) Colon HTC116
[7] = Mus musculus, B16-F10, Table 10, read-out: CELL KILLING EC50 (μM) Melanoma B16F10
[8] = 20 nM SAG, mean ± standard error of the mean, read-out: TM3-Gli-Luc EC50
[9] = TM3-Gli-Luc reporter line stimulated with 20 nM SAG, mean ± SEM, Table 14, read-out: TM3-Gli-Luc EC50

Compound | EC50 (PC3) [µM] | EC50 [1, 2] [µM] | EC50 (MDA-MB- 231; [3]) [µM] | EC50 (RWGT2; [4]) [µM] | EC50 (DaoY; [5]) [µM] | EC50 (HCT116; [6]) [µM] | EC50 (RKO) [µM] | inhibition at 1 µM (Gli1 mRNA) [%] | inhibition at 10 µM (Gli1 mRNA) [%] | EC50 (Gli1 mRNA) [µM] | EC50 (B16F11; [7]) [µM] | also measured
C=C(C)Cn1c(SCC(=O)c2cccs2)nc2sc3c(c2c1=O)CCCC3 [EGM, Eggmanone] | 77.2 | 1.35 | 2.05 | 6.87 | 31.5 | 11.4 | 54.3 | 53.3 | 92.7 | 1.41 | 2.22 | 
C=C(C)Cn1c(SCC(=O)c2cccs2)nc2sc3c(c2c1=O)CCCC3 [Eggmanone, 3-(2-methylallyl)-2-((2-oxo-2-(thiophen-2-yl)ethyl)thio)-5,6,7,8-tetrahydrobenzo[4,5]thieno[2,3-d]pyrimidine-4(3H)-one] |  |  |  |  |  |  |  |  |  |  |  | Effect on PC3 prostate cancer cell line (PC3): is affected; EC50 (MDA-MB- 231; 72 h, read-out: EC50 (50% reduction of viable cell count at 72 hours), MDA-MB- 231, Human Breast Adenocarcinoma): 2.05 µM; EC50 (RWGT2; 72 h, read-out: EC50 (50% reduction of viable cell count at 72 hours), RWGT2, Human Lung Carcinoma): 6.87 µM; Viability of Daoy medulloblastoma cells (DaoY): potently and preferentially reduced the viability; also recorded: significantly inhibited; Viability of Daoy medulloblastoma cells (DaoY; listed as eggmanone): potently and preferentially reduced the viability; Effect on HCT116 colon cancer cell line (HCT116): significantly inhibited; Effect on RKO colon cancer cell line (RKO): significantly inhibited; EC50 (B16F11; 72 h, read-out: EC50 (50% reduction of viable cell count at 72 hours), B16F11, Mouse Melanoma): 2.05 µM
CCCn1c(SCC(=O)c2cccs2)nc2sc3c(c2c1=O)CCCC3 [Formula 9e] |  |  |  |  |  |  |  |  |  |  |  | EC50 [1, 8]: 1.3 ± 0.18 µM; EC50 [1, 9]: 1.3 ± 0.18 µM
C=C(C)Cn1c(SCC(=O)c2ccccc2)nc2sc3c(c2c1=O)CCCC3 [Formula 9g] |  |  |  |  |  |  |  |  |  |  |  | Hh inhibitory activity / potency in words ([1]; 20 nM SAG): modest potency; EC50 [1, 8]: 5.7 ± 2.1 µM; EC50 [1, 9]: 5.7 ± 2.1 µM
O=C(CSc1nc2sc3c(c2c(=O)n1C1CC1)CCCC3)c1cccs1 [JEH-3-039-2] |  | 0.476 |  |  |  |  |  | 49.3 | 89.1 | 0.593 |  | 
C=CCn1c(SCC(=O)c2cccs2)nc2sc3c(c2c1=O)CCCC3 [JEH-3-039-3] | 50.1 | 3.02 | 1.74 | 5.07 | 34 | 54.5 | 306 | 64.9 | 66.5 |  | 3.69 | 
C=C(C)Cn1c(SCC(=O)c2ccccc2)nc2sc3c(c2c1=O)CCCC3 [JEH-3-045-1] |  | 8.49 |  |  |  |  |  | 58.1 | 95.4 | 0.809 |  | 
C=C(C)Cn1c(SCC(=O)c2ccncc2)nc2sc3c(c2c1=O)CCCC3 [JEH-3-048-1] | 81.2 | 19 | 6.82 | 40.2 | 0.0574 | 87.9 | 52.9 |  | 28.7 |  | 14.2 | EC50 (DaoY; 72 h, read-out: EC50 (50% reduction of viable cell count at 72 hours), DaoY, Human Cerebellar Medulloblastoma): 0.057 µM
C=C(C)Cn1c(SCC(=O)c2ccccn2)nc2sc3c(c2c1=O)CCCC3 [JEH-3-063] | 100 | 39.8 | 4.46 | 23.7 | 15.3 | 3.82 | 7.18 |  | 35.4 |  | 2.29 | EC50 (HCT116; HCT-116, 72 h, read-out: EC50 (50% reduction of viable cell count at 72 hours), HCT116, Human Colorectal Carcinoma): 3.82 µM
C=C(C)Cn1c(SCC(=O)c2nccs2)nc2sc3c(c2c1=O)CCCC3 [JEH-3-069-1] | 69.7 | 32.5 | 14 | 27.6 | 26.9 | 22.9 | 38.3 |  | 42.8 |  | 16.1 | 
